Tests used:
[1] = tested on: chronic obstructive pulmonary disease (COPD); assay: Animal test 1: OVA-induced COPD in rats, lung tissue and BALF infiltrating cells; format: in vivo; conditions: OVA-challenge; p.o. 60 mg/kg; BALF 24 h after OVA; Mean±S.E. (n=4)
Method: In order to evaluate the pharmacological effect of the mT/PL-RP (Example 1) via intratracheal administration, chronic obstructive pulmonary disease (COPD) was induced in rats, and the effect was compared with the effect via oral administration. Ovalbumin (OVA, Sigma-Aldrich) was intraperitoneally administered three times at seven-day intervals. Next day, the mT/PL-RP (Example 1) (5 mg-PL/kg) was intratracheally administered, or the PL (Comparative Example 2) (60 mg/kg) was orally administered. One hour after the administration, inflammation was caused by intratracheally administering micronized OVA powder to induce COPD. Twenty-four hours after the inflammation caused by OVA administration, the lungs were excised and bronchoalveolar lavage fluid (BALF) was collected. The lung tissue was stained with peroxidase by a standard method and subsequently observed. […] FIG. 8 and Table 6 show the result.

[2] = Animal test 2: amount of PL transferred into blood (pharmacokinetics); format: in vivo; conditions: rat, po, rats, p.o. 60 mg/kg, Mean±S.E. (n=4-5)
Method: The amount of PL transferred into blood was evaluated in oral administration and intratracheal administration. The blood PL concentrations up to 12 hours after administration were measured over time in a group of rats having undergone intratracheal administration of the mT/PL-RP (Example 1) (5 mg-PL/kg) and in a group of rats having undergone oral administration of the PL (Comparative Example 2) (60 mg/kg). FIG. 9 and Table 7 show the results.

In the case of `O=C(Nc1cccc2c(=O)cc(-c3nnn[nH]3)oc12)c1ccc(OCCCCc2ccccc2)cc1` [Crystalline PL, pranlukast], the “Inflammatory cells in BALF, Eosinophils” value [1] is reported as 1.5 ± 0.6 × 10^4 cells/mL, the “Inflammatory cells in BALF, Macrophages” value [1] is reported as 3.1 ± 1.3 × 10^4 cells/mL and the “Inflammatory cells in BALF, Neutrophils” value [1] is reported as 11.5 ± 2.7 × 10^4 cells/mL. For the same compound, the Cmax [2] was 250 ± 160 ng/mL and the Tmax [2] was 1.6 ± 0.6 h.

— EP4789662A1, “POWDER FOR INHALATION” (Nagase Viita Co., Ltd., priority 2023, dated 2025)
